From article PMC10812557, “Progressive Design of a Ranatuerin-2 Peptide from Amolops wuyiensis: Enhancement of Bioactivity and In Vivo Efficacy” (Antibiotics, 2023) come the findings set out here.

As a reminder, the IC50 is the concentration at which inhibition is half-maximal.

“And” between values parts separate entries of the source, which are not always exact repeats. Equal entries are not always repeated. Where two headings read alike, the source gives them in different places. Peptide text beside a SMILES is read from it. A value given as a limit tells only on which side of the number the result lay.

Series [1] deals with MRSA (NCTC 12493). Kind of series: Time–killing assay. In kind it is cell-based, methicillin-resistant Staphylococcus aureus. The settings on record: control antibiotic, 3 h incubation. The protocol:
(§1) S. aureus (NCTC 10788), E. coli (ATCC 8739), MRSA (NCTC 12493), and P. aeruginosa (ATCC 9027) were used in this assay. Treatments of 2 × MIC, 1 × MIC, and 0.5 × MIC of [Lys^4,19, Leu^20]R2AW(1-22)-NH2 were prepared and mixed with 198 μL of diluted bacteria (5 × 10^5 CFU/mL). At each time point (0, 10, 20, 30, 60, 90, 120, and 180 min), 10 μL of peptide and bacteria mixture was dropped onto the MHA plate. After overnight incubation, the number of bacterial colonies was calculated. The CFU/mL could be calculated using the formula CFU/mL = (Number of colonies × dilution factor)/volume of culture.

Series [2] concerns E. faecium (NTCC 12697). Description: microbe, parasite or virus in culture. The series is classed as cell-based. From the text: (§2) The MIC and MBC assays were used to assess the inhibitory activities of all 5 analogues of R2AW on the growth of planktonic microorganisms. The MIC is the lowest concentration that prevents the viable growth of bacteria. The MBC is the lowest concentration that results in bacterial death. Six microorganisms were used to detect the antimicrobial activity of peptides, including Gram-positive bacteria S. aureus (NCTC 10788), MRSA (NCTC 12493), Enterococcus faecalis (E. faecalis) (NCTC 12697), Gram-negative bacteria E. coli […], Klebsiella pneumoniae (K. pneumoniae) (ATCC 43816), and Pseudomonas aeruginosa (P. aeruginosa) (ATCC 9027). According to the assay described previously, the microorganisms were inoculated at 37 °C overnight and diluted to 5 × 10^5 CFU/mL after reaching the logarithmic growth period. The peptide stock solution at the concentration of 512 × 10^2 μM was prepared and diluted to 100 μM by a 2-fold dilution. One μL of each concentration of peptide solution was incubated with 99 μL of bacterial subculture in the 96-well plate for 18 h at 37 °C. The absorbance was determined at a wavelength of 550 nm using a Synergy HT plate reader (Bio Tek, Washington, DC, USA). […] As for those wells that were clearly visible, 20 μL of the solution was dropped onto the Mueller Hinton agar (MHA) dish and then incubated at 37 °C overnight. The lowest concentration with no colony growth was determined as the MBC.

Series [3] has as its system MRSA (NCTC 12493). Description: microbe, parasite or virus in culture. In kind it is cell-based.
From the text: as §2

For series [4], the system named is S. aureus (NCTC 10788). Description: microbe, parasite or virus in culture. In kind it is cell-based.
From the text: as §2

For series [5], the system named is S. aureus (NCTC 10788). Kind of series: Time–killing assay. The series is classed as cell-based, Staphylococcus aureus. Conditions: control antibiotic, 3 h incubation. The method, then:
as §1

Series [6] relates to PC-3. In kind it is cell-based, human. Conditions: 24 h. The protocol:
(§3) Five human cancer cell lines of non-small-cell lung cancer H838, human prostate carcinoma PC-3, human neuronal glioblastoma U251MG, human breast cancer cell MCF-7, and colorectal carcinoma HCT116 were used to detect the antiproliferative abilities of R2AW and its five analogues. According to the procedures in a previous article, cells (8000 cells/well) were seeded into the 96-well tissue culture plates and incubated at 37 °C with 5% CO2 overnight. The solutions of R2AW and its analogues at concentrations of 10^−4 M to 10^−9 M were prepared in the serum-free medium. Next, cells in each well were treated with 100 μL of each peptide solution for 24 h. Subsequently, 10 μL of 5 mg/mL MTT (3-(4, 5-Dimethylthiazol-2-yl-)-2, 5-Diphehyltetrazolium Bromide) was added to each well followed by 37 °C incubation for 2 h. After that, the liquid in each well was removed and 100 μL of DMSO was added to dissolve the purple formazan. The plate was placed on a shaking incubator for 10 min, and the absorbance was detected at 550 nm using a Synergy HT plate reader (Biotech, Minneapolis, MN, USA).

In series [7] the test system is HCT116. The series is classed as cell-based, human. Conditions: 24 h. The method, then:
as §3

Series [8] deals with U251MG. The series is classed as cell-based, human. The settings on record: 24 h. The protocol:
as §3

For series [9], the system named is H838. In kind it is cell-based, human. Conditions: 24 h. The method, then:
as §3

The test system of series [10] is MCF-7. The series is classed as cell-based, human. Conditions: 24 h. The method, then:
as §3

Series [11] deals with E. coli (ATCC 8739). The series is classed as cell-based, Escherichia coli. The method, then:
(§4) As a previous study described in detail, the ability of R2AW and its analogues to inhibit and eradicate the formation of biofilm was investigated. The MBIC is the lowest concentration which inhibits the formation of biofilm. The MBEC is the minimum concentration that eradicates biofilm. Six bacterial strains were used, as described above. Briefly, the bacteria were cultured and then diluted to 5 × 10^5 CFU/mL. In MBIC assays, 1 μL of each concentration of R2AW and its analogues (ranging from 512 × 10^2 μM to 100 μM) was mixed with 99 μL of diluted bacterial suspension in a 96-well plate for 16-20 h at 37 °C. As for MBEC assays, 100 μL of cultured bacteria were seeded in a 96-well plate and incubated on the shaking incubator at 37 °C overnight for biofilm formation. Subsequently, each well was rinsed twice with 100 μL sterile PBS to remove planktonic cells, and then replaced with 100 μL of each concentration (ranging from 512 μM to 1 μM) of peptides. After 24 h incubation, the biofilm was washed twice with 100 μL of PBS and fixed with methanol. Next, the same volume of 0.1% crystal violet solution (Sigma-Aldrich, Gillingham, UK) was added to each well to stain the biofilm. After that, 100 μL of 30% of acetic acid (Sigma-Aldrich, Gillingham, UK) was transferred to each well for dissolution. The solutions were transferred into a new 96-well plate and the absorbances of wells was monitored using a Synergy HT plate reader set to 595 nm.

In series [12] the test system is S. aureus (NCTC 10788). In kind it is cell-based, Staphylococcus aureus. The method, then:
as §4

Series [13] is described as follows: Haemolysis assay. In kind it is cell-based, horse. The settings on record: horse. The method, then: The haemolytic activity of R2AW and its five designed analogues on mammalian erythrocytes was evaluated using 2% defibrinated horse blood (TCS Biosciences Ltd., Buckingham, UK) as per a previous report. Two mL of fresh horse blood was transferred into a 50 mL tube and then washed with sterilised PBS. The supernatant was removed after centrifuging (930× g, 5 min). The centrifugation procedure was repeated until the supernatant was clear. After washing, the red blood cell pellet was diluted with PBS to achieve a 4% (v/v) erythrocyte suspension. The concentrations of R2AW and its designed derivatives were prepared from 512 μM to 2 μM by two-fold dilution in sterilised PBS. One hundred µL of red blood cell suspension was added into a 1.5 mL tube treated with the same volume of each concentration of peptide and incubated at 37 °C for 2 h. The red blood cell suspensions treated with 0.2% Triton X-100 and with PBS were regarded as positive control and negative control. After centrifugation at 930× g for 10 min, 100 μL of suspension was transferred to a 96-well plate, and the absorbance was obtained by use of a Synergy HT plate reader. The degree of haemolysis could be calculated using the following formula: Haemolysis = (absorbance (experimental groups) − absorbance (negative control))/(absorbance (positive control) − absorbance (negative control)) × 100%.

For series [14], the system named is K. pneumoniae (ATCC 43816). In kind it is cell-based, Klebsiella pneumoniae. The method, then:
as §4

Series [15] relates to MRSA (NCTC 12493). In kind it is cell-based, methicillin-resistant Staphylococcus aureus. The settings on record: NCTC 12493. The method, then: as §4
For series [16], the system named is E. faecium (NTCC 12697). In kind it is cell-based. The method, then:
as §4

Series [17] deals with P. aeruginosa (ATCC 9027). In kind it is cell-based.
From the text: as §2

For series [18], the system named is E. coli (ATCC 8739). In kind it is cell-based.
From the text: as §2

The subject of series [19] is K. pneumoniae (ATCC 43816). The series is classed as cell-based.
From the text: as §2

Series [20] has as its system P. aeruginosa (ATCC 9027). The series is classed as cell-based, Pseudomonas aeruginosa. The protocol: as §4
In series [21] the test system is E. coli (ATCC 8739). Description: Time–killing assay. In kind it is cell-based, Escherichia coli. Conditions: peptide control. The method, then: as §1
Series [22] concerns P. aeruginosa (ATCC 9027). Description: Time–killing assay. In kind it is cell-based, Pseudomonas aeruginosa. Conditions: peptide control. The method, then: as §1
The mark [23] stands for this setting: Staphylococcus aureus, NCTC10788.

Consider `CN[C@H](CC(C)C)C(=O)N[C@H]1C(=O)N[C@@H](CC(N)=O)C(=O)N[C@H]2C(=O)N[C@H]3C(=O)N[C@H](C(=O)N[C@H](C(=O)O)c4cc(O)cc(O)c4-c4cc3ccc4O)[C@H](O)c3ccc(c(Cl)c3)Oc3cc2cc(c3O[C@@H]2O[C@H](CO)[C@@H](O)[C@H](O)[C@H]2O[C@H]2C[C@](C)(N)[C@H](O)[C@H](C)O2)Oc2ccc(cc2Cl)[C@H]1O` [Vancomycin, reference compound], for which the “killing effect in time–killing curve” value in [1] and in series [5] was “could only inhibit the growth of bacteria” throughout. Moreover, the MBC in series [2] (Enterococcus faecium) was > 92.7 µg/mL and > 64 µM; in [3] (Staphylococcus aureus) it was 0.7 µg/mL and 0.5 µM; in series [4] (setting [23]), 0.7 µg/mL and 0.5 µM. In addition, the MIC in [2] (Enterococcus faecium) was 0.7 µg/mL and 0.5 µM; in series [3] (Staphylococcus aureus), 0.7 µg/mL and 0.5 µM; in series [4] (setting [23]) it was 0.7 µg/mL and 0.5 µM.

For the compound `CSCC[C@H](NC(=O)[C@H](Cc1ccccc1)NC(=O)CN)C(=O)N[C@@H](CCCCN)C(=O)N[C@H](C(=O)N[C@@H](Cc1c[nH]c2ccccc12)C(=O)N[C@@H](CCCCN)C(=O)N[C@@H](CC(N)=O)C(=O)N[C@H](C(=O)N[C@@H](Cc1c[nH]c2ccccc12)C(=O)N[C@@H](CCCCN)C(=O)N[C@@H](CC(N)=O)C(=O)N[C@H](C(=O)N[C@@H](C)C(=O)N[C@@H](C)C(=O)N[C@H](C(=O)N[C@@H](CC(C)C)C(=O)N[C@@H](CC(C)C)C(=O)N[C@@H](CCCCN)C(=O)N[C@@H](CC(C)C)C(=O)N[C@@H](CC(C)C)C(=O)N[C@@H](CCCCN)C(N)=O)[C@@H](C)O)C(C)C)C(C)C)[C@@H](C)O` [[Trp^6,10]R2AW(1-22)-NH2] (H-GFMKTWKNVWKNVAATLLKLLK-NH2; N-terminus assumed), the IC50 in series [6] was 1.73 µM; in [7], 5.38 µM; in [8] it was 3.35 µM; in [9], 3.41 µM; in [10], 5.33 µM. Besides, the MBC in series [2] (NTCC 12697, 18 h) is 41.4 mg/L; in [3] (MRSA (NCTC 12493)), 20.7 mg/L; in series [4] (NCTC 10788, 18 h) it was 20.7 mg/L; in series [17] (ATCC 9027, 18 h), 166 mg/L; in series [18] (ATCC 8739, 18 h), 41.4 mg/L; in series [19] (ATCC 43816, 18 h), 82.8 mg/L. Further, the MIC in [2] (NTCC 12697, 18 h) is 20.7 mg/L; in [3] (MRSA (NCTC 12493)), 10.4 mg/L; in [4] (NCTC 10788, 18 h) it was 10.4 mg/L; in series [17] (ATCC 9027, 18 h) it was 82.8 mg/L; in series [18] (ATCC 8739, 18 h) it was 20.7 mg/L; in [19] (ATCC 43816, 18 h), 41.4 mg/L. For the same compound, the MBEC in series [11] is listed as 256 µM; in series [12], 512 µM; in [14] it was 256 µM; in series [15], more than 512 µM; in [16], more than 512 µM; in [20], 512 µM. In addition, the MBIC in series [11] came to 4 µM; in [12] it was 8 µM; in series [14], 16 µM; in [15] it was 8 µM; in series [16] it was 8 µM; in [20], 32 µM. In addition, in series [13], the hemolysis at 2 h, 2 µM was approximately 20%.

Consider Colistin [reference compound], for which the “killing effect in time–killing curve” value in series [21] and in series [22] was “rapid bacterial killing effect” throughout. Moreover, the MBC in [17] (P. aeruginosa (ATCC 9027)) was 2.3 mg/L and 2 µM; in series [18] (E. coli (ATCC 8739)) it was 0.3 mg/L and 0.25 µM; in series [19] (K. pneumoniae (ATCC 43816)), 18.5 mg/L and 16 µM. The MIC was 1.2 mg/L and 1 µM in series [17] (P. aeruginosa (ATCC 9027)); 0.1 mg/L and 0.125 µM in [18] (E. coli (ATCC 8739)); 18.5 mg/L and 16 µM in [19] (K. pneumoniae (ATCC 43816)).
